# What was measured:
# Assay type in all cases: cell-based
# [1] = system: L1210 (mouse lymphocytic leukemia); experiment: Test on cell proliferation (MTT test), L1210; conditions: 48 hours
# Method: (§1) a. Eight tumoral cell lines are used in this study: L1210 (mouse lymphocytic leukemia), HCT15 and LOVO (cell lines of human colon adenocarcinoma), A549 (human lung carcinoma), A172, U373 et U87 (human glioblastoma). All these lines are obtained from the American Type Culture Collection (ATCC), Rockville, Md. The L1210 cell cultures in suspension are cultured in Dulbecco's modified Eagle's medium (DMEM) (BioWhitaker, Verviers, Belgium) together with 10% of foetal calf serum inactivated by heating, 2 mM of glutamine, 50 μg/ml of penicillin and 50 μg/ml of streptomycin. The HT29 cells are cultured in mono-layer cultures in a McCoy 5a medium (Gibco, Paisley, United Kingdom) together with 10% of foetal calf serum inactivated by heat plus 2 mM of glutamine and 50 μg/ml of gentamycin. The other cells are cultured in an Earle's modified essential medium (EMEM; Gibco, Paisley, United Kingdom) together with 5% foetal calf serum inactivated by heat, 2 mM of glutamine, 50 U/ml of penicillin and 50 μg/ml of streptomycin. All the cell lines are cultured at 37° C. in a humidified atmosphere containing 95% air and 5% CO2.
# (§2) Inhibition of the tumor cell line proliferation is determined using an MTT test. 1500 L1210 cells in a culture medium (according to the needs of the cell medium) are seeded in a well of a micro-well plate (tissue culture level: 96 wells, flat bottom) 24 hours before treatment with the compounds to be tested. For these dose-response studies, the cells are incubated with each of the compounds to be tested or their corresponding solvent (controls) for 48 hours over a final concentration range of 1.10^−10 to 1.10^−4 M. All the compounds are dissolved just before use in dimethylsulphoxide (DMSO) at a concentration of 50 mM. Other dilutions of the medicaments are carried out in the culture medium. The final concentration of DMSO never exceeds 0.2% (v/v). As controls, the solutions of medicaments are replaced with the solvent which is diluted successively in the same way as the compounds to be tested.
# (§3) After the incubation period, the labeling reagent MTT (3-[4,5-dimethylthiazol-2-yl]-2,5-diphenyltetrazolium bromide; Thiazol blue, Sigma M 565, Sigma, St Louis, Mo.) is added at a final concentration of 0.3 mg/ml to each well. The cells are incubated for 4 hours at 37° C. in a humidified atmosphere. This stage allows the mitochondrial dehydrogenase of the living cells to convert the yellow tetrazolium salt MTT into crimson formazan crystals. The supernatant part is eliminated and the formazan crystals formed are solubilized with DMSO. The resultant coloured solution is quantified by absorbance at 570 nm by using a multi-cuvette scanning spectrophotometer. The data concerning the proliferation is expressed as a percentage of living cells in the treated wells, divided by the living cells in the controls. Each point represents the average of three independent experiments, each experiment represents six determinations.
# (§4) The results are expressed as percentages of the calculated proliferation by the optical density (OD) of the cells treated with a medicament divided by the OD of the control cells (cells treated with DMSO). As represented in Table II, the compounds to be tested have inhibited the proliferation of cells in a dose-dependent manner.
# [2] = system: HCT15 (cell lines of human colon adenocarcinoma); experiment: Test on cell proliferation (MTT test), HCT15; conditions: 72 hours
# Method: as §1, §2, §3
# (§5) For the other cell lines (HCT15, LOVO, A549, A172, U373, U87), 1000 to 2000 cells are seeded in the well of a micro-well plate 24 hours before medicinal treatment. […]
# as §4
# [3] = system: LOVO (cell lines of human colon adenocarcinoma); experiment: Test on cell proliferation (MTT test), LOVO; conditions: 72 hours
# Method: as §1, §2, §3, §5, §4
# [4] = system: A549 (human lung carcinoma); experiment: Test on cell proliferation (MTT test), A549; conditions: 72 hours
# Method: as §1, §2, §3, §5, §4
# [5] = system: A172 (human glioblastoma); experiment: Test on cell proliferation (MTT test), A172; conditions: 72 hours
# Method: as §1, §2, §3, §5, §4
# [6] = system: U373 (human glioblastoma); experiment: Test on cell proliferation (MTT test), U373; conditions: 72 hours
# Method: as §1, §2, §3, §5, §4
# U87 (human glioblastoma) = experiment: Test on cell proliferation (MTT test), U87; conditions: 72 hours
# Method: as §1, §2, §3, §5, §4
smiles,measurement,setting,value
"CCC1(O)CC(=O)OCc2c1cc1n(c2=O)Cc2cc3cc4c(cc3nc2-1)OCCO4 (stereo not shown) [Example 11, 8-ethyl-8-hydroxy-2,3,8,9,12,15-hexahydro-10H,13H-[1,4]dioxino [2,3-g]oxepino[3′,4′:6,7]indolizino[1,2-b]quinoline-10,13-dione]",PERCENTAGE OF CELL PROLIFERATION,[1]; 0.1 nM,91.99%
same,PERCENTAGE OF CELL PROLIFERATION,[1]; 1 nM,81.37%
same,PERCENTAGE OF CELL PROLIFERATION,[1]; 10 nM,23.16%
same,PERCENTAGE OF CELL PROLIFERATION,[1]; 100 nM,16.83%
same,PERCENTAGE OF CELL PROLIFERATION,[1]; 1 000 nM,5.59%
same,PERCENTAGE OF CELL PROLIFERATION,[1]; 10 000 nM,1.45%
same,PERCENTAGE OF CELL PROLIFERATION,[1]; 100 000 nM,1.04%
same,PERCENTAGE OF CELL PROLIFERATION,[2]; 0.1 nM,71.00%
same,PERCENTAGE OF CELL PROLIFERATION,[2]; 1 nM,63.00%
same,PERCENTAGE OF CELL PROLIFERATION,[2]; 10 nM,45.00%
same,PERCENTAGE OF CELL PROLIFERATION,[2]; 100 nM,23.00%
same,PERCENTAGE OF CELL PROLIFERATION,[2]; 1 000 nM,12.00%
same,PERCENTAGE OF CELL PROLIFERATION,[2]; 10 000 nM,9.00%
same,PERCENTAGE OF CELL PROLIFERATION,[2]; 100 000 nM,9.00%
same,PERCENTAGE OF CELL PROLIFERATION,[3]; 0.1 nM,66.00%
same,PERCENTAGE OF CELL PROLIFERATION,[3]; 1 nM,42.00%
same,PERCENTAGE OF CELL PROLIFERATION,[3]; 10 nM,29.00%
same,PERCENTAGE OF CELL PROLIFERATION,[3]; 100 nM,21.00%
same,PERCENTAGE OF CELL PROLIFERATION,[3]; 1 000 nM,8.00%
same,PERCENTAGE OF CELL PROLIFERATION,[3]; 10 000 nM,3.00%
same,PERCENTAGE OF CELL PROLIFERATION,[3]; 100 000 nM,3.00%
same,PERCENTAGE OF CELL PROLIFERATION,[4]; 0.1 nM,82.00%
same,PERCENTAGE OF CELL PROLIFERATION,[4]; 1 nM,44.00%
same,PERCENTAGE OF CELL PROLIFERATION,[4]; 10 nM,29.00%
same,PERCENTAGE OF CELL PROLIFERATION,[4]; 100 nM,26.00%
same,PERCENTAGE OF CELL PROLIFERATION,[4]; 1 000 nM,4.00%
same,PERCENTAGE OF CELL PROLIFERATION,[4]; 10 000 nM,3.00%
same,PERCENTAGE OF CELL PROLIFERATION,[4]; 100 000 nM,2.00%
same,PERCENTAGE OF CELL PROLIFERATION,[5]; 0.1 nM,95.00%
same,PERCENTAGE OF CELL PROLIFERATION,[5]; 1 nM,53.00%
same,PERCENTAGE OF CELL PROLIFERATION,[5]; 10 nM,47.00%
same,PERCENTAGE OF CELL PROLIFERATION,[5]; 100 nM,39.00%
same,PERCENTAGE OF CELL PROLIFERATION,[5]; 1 000 nM,12.00%
same,PERCENTAGE OF CELL PROLIFERATION,[5]; 10 000 nM,3.00%
same,PERCENTAGE OF CELL PROLIFERATION,[5]; 100 000 nM,2.00%
same,PERCENTAGE OF CELL PROLIFERATION,[6]; 0.1 nM,50.00%
same,PERCENTAGE OF CELL PROLIFERATION,[6]; 1 nM,30.00%
same,PERCENTAGE OF CELL PROLIFERATION,[6]; 10 nM,25.00%
same,PERCENTAGE OF CELL PROLIFERATION,[6]; 100 nM,8.00%
same,PERCENTAGE OF CELL PROLIFERATION,[6]; 1 000 nM,2.00%
same,PERCENTAGE OF CELL PROLIFERATION,[6]; 10 000 nM,1.00%
same,PERCENTAGE OF CELL PROLIFERATION,[6]; 100 000 nM,2.00%
same,PERCENTAGE OF CELL PROLIFERATION,U87 (human glioblastoma); 0.1 nM,40.00%
same,PERCENTAGE OF CELL PROLIFERATION,U87 (human glioblastoma); 1 nM,21.00%
same,PERCENTAGE OF CELL PROLIFERATION,U87 (human glioblastoma); 10 nM,12.00%
same,PERCENTAGE OF CELL PROLIFERATION,U87 (human glioblastoma); 100 nM,6.00%
same,PERCENTAGE OF CELL PROLIFERATION,U87 (human glioblastoma); 1 000 nM,1.00%
same,PERCENTAGE OF CELL PROLIFERATION,U87 (human glioblastoma); 10 000 nM,1.00%
same,PERCENTAGE OF CELL PROLIFERATION,U87 (human glioblastoma); 100 000 nM,1.00%

# Source: patent US6815546B2, “Analogues of camptothecin, their use as medicaments and the pharmaceutical compositions containing them” (Societe de Recherches et d'Applications Scientifiques …, priority 1995, dated 2004)
